Results from patent publication US20070087378A1, “Polynucleotide and polypeptide fat metabolism regulators and uses thereof” (priority 2002, published 2007).
“Also recorded” adds a separate entry of the source.

Tests used:
C. elegans = assay: Growth rate, brood-size, pharyngeal pumping, dauer formation, dauer recovery and lifespan assays; settings: concentrations between 0.001 μg/ml and 25 μg/ml
nematode progeny = assay: Continuous AICAR treatment: growth and development of nematode progeny; settings: relative to untreated control progeny
Procedure: Adult wild-type nematodes, daf-2 (e1370), tph-1(mg280), and tub-1(nr2004) mutant nematodes were treated with 500 μM AICAR, and their fat content was detected using Nile Red as described above. […] To determine whether the effects of AICAR were reversible, AICAR-treated nematodes were then moved to culture plates without AICAR. […] The effect of continuous AICAR treatment was tested by seeding AICAR plates with five hermaphrodites, and then monitoring the effect of AICAR on the growth and development of nematode progeny relative to untreated control progeny.

[1] = system: tub-1(nr2004) mutant nematodes; parameters: species or system C. elegans; settings: in vivo
[2] = system: tph-1(mg280) mutant nematodes; assay: Nile Red fat staining of tph-1(mg280) nematodes (RNAi epistasis analysis; compound treatment); assay type: in vivo, C. elegans; settings: adult tph-1(mg280) nematodes, 500 μM
[3] = system: daf-2(e1370) mutant nematodes; parameters: species or system C. elegans; settings: in vivo
wild-type nematodes = assay: Nile Red fat staining of wild-type nematodes (feeding RNAi screen; compound treatment); assay type: in vivo, C. elegans
lpo-1 mutant nematodes = system: lpo-1 mutant nematodes; parameters: species or system C. elegans; settings: in vivo

For `CCN(CC)c1ccc2nc3c4ccccc4c(=O)cc-3oc2c1` [Nile Red, 9-diethylamino-5H-benzo[α]phenoxazine-5-one], the “adverse effects on growth rate, brood-size, pharyngeal pumping, dauer formation, dauer recovery, or lifespan” value (C. elegans) was “No adverse effects”.
`NC(=O)c1ncn([C@@H]2O[C@H](CO)[C@@H](O)[C@H]2O)c1N` [AICAR, 5-aminoimidazole-4-carbozamide ribonucleoside] was tested, and the “effect on growth and development of progeny” value (nematode progeny) was “dramatic retardation of larval growth accompanied by depleted fat stores”, the “fat content relative to untreated control nematodes” value [1] was “progressive reduction in fat content” and the “fat content relative to untreated control nematodes” value [2] was “progressive reduction in fat content”. For the same compound, the “fat content relative to untreated control nematodes” value [3] was “progressive reduction in fat content”, the “time at which reduction in fat content was detectable” value (wild-type nematodes; 500 μM, wild-type and daf-2, tph-1, tub-1 mutant nematodes) was “twenty-four” and the “fat content relative to untreated control nematodes” value (wild-type nematodes; adult wild-type nematodes, 500 μM) was “progressive reduction in fat content”. The “reversibility of fat reduction” value (wild-type nematodes; treated nematodes moved to culture plates without AICAR) was “regained their fat content”.
With `CC[C@H](C)C(=O)O[C@H]1C[C@@H](C)C=C2C=C[C@H](C)[C@H](CC[C@@H]3C[C@@H](O)CC(=O)O3)[C@H]21` [mevinolin] the “fat content / fat accumulation by Nile Red staining” value (lpo-1 mutant nematodes) was “reduced; also recorded: decreased fat accumulation”.
